≈ marks a conversion by molar mass, not a printed value.
Legend:
Format in all cases: cell-based
Candida albicans = assay: MIC test (growth inhibition, 96 well plates, OD); conditions: read-out: Minimum Inhibitory Concentration (MIC)
Description: (§1) The MIC test is a test on growth inhibition. Estimation of Minimum Inhibitory Concentration (MIC) is executed in 96 well plates. Through the comparison of bacterial growth with positive and negative controls via optical density (OD), different concentrations of given test substances are evaluated.
(§2) Bacteria are cultivated under adjusted conditions based on information of the German Collection of Microorganisms and Cell Cultures (DSMZ) and stored in 50% Glycerol prior to use. Afterwards, the following method was applied: Adding growth medium (according to microorganism) to each well of the microplate. Adding the test-substances in different concentrations, positive controls (water controls only with medium) and negative controls (benchmarks according to organism). Adding the microorganism in a concentration of 10^6 CFU/ml (CFU=colony forming units). Incubation of the microplates at appropriate conditions.
(§3) According to resulting growth, substance concentrations are labelled either as inhibiting or not and MIC is defined as the lowest concentration where a complete growth inhibition is visible. Experiments at concentration limits (highest concentration labelled as growth and lowest concentration labelled as inhibiting) are performed at least twice.

Corynebacterium jeikeium = assay: MIC test (growth inhibition, 96 well plates, OD); conditions: read-out: Minimum Inhibitory Concentration (MIC)
Description: as §1, §2, §3

Escherichia coli = assay: MIC test (growth inhibition, 96 well plates, OD); conditions: read-out: Minimum Inhibitory Concentration (MIC)
Description: as §1, §2, §3

Propionibacterium acnes = assay: MIC test (growth inhibition, 96 well plates, OD); conditions: Cutibacterium acnes; read-out: Minimum Inhibitory Concentration (MIC)
Description: as §1, §2, §3

Staphylococcus aureus = assay: MIC test (growth inhibition, 96 well plates, OD); conditions: read-out: Minimum Inhibitory Concentration (MIC)
Description: as §1, §2, §3

Staphylococcus hominis = assay: MIC test (growth inhibition, 96 well plates, OD); conditions: read-out: Minimum Inhibitory Concentration (MIC)
Description: as §1, §2, §3

[1] = test system: Aspergillus brasiliensis (AB); assay: Preservation efficacy test (PET), European Pharmacopoeia 5.1.3
Description: (§4) The preservation efficacy test (PET) was performed in accordance with European Pharmacopoeia § 5.1.3: The test is a reference European Pharmacopoeia method, that is to be used to evaluate the preservation system of a cosmetic or pharmaceutical preparation. The test consists of challenging the preparation under test, with prescribed inoculums of suitable microorganisms. The preservation porperties of the preparation are adequate if, in the conditions of the test, there is a significant fall or no increase, as appropriate, in the number of microorganisms in the inoculated preparations after the time prescribed.
(§5) The test microorganisms which were used, are the following:
(§6) Pseudomonas aeruginosa (PA) (bacterium); Staphylococcus aureus (SA) (bacterium); Escherichia coli (EC) (bacterium); Candida albicans (CA) (yeast); and Aspergillus brasiliensis (AB) (fungus).

Candida albicans (CA) = assay: as above
Description: as §4, §5, §6

Escherichia coli (EC) = assay: as above
Description: as §4, §5, §6

[2] = test system: Pseudomonas aeruginosa (PA); assay: as above
Description: as §4, §5, §6

[3] = test system: Staphylococcus aureus (SA); assay: as above
Description: as §4, §5, §6

With CCCCCC(O)CO (stereo not drawn) [1,2-heptanediol] as the molecule, how does the MIC (Candida albicans) read?
Its MIC is 5000 µg/mL (≈ 37.8 mM).

And the MIC (Corynebacterium jeikeium)?
The MIC was 7500 µg/mL (≈ 56.7 mM).

And the MIC (Escherichia coli)?
Its MIC is 5000 µg/mL (≈ 37.8 mM).

And the MIC (Propionibacterium acnes)?
Its MIC is over 5000 µg/mL.

What about the MIC (Staphylococcus aureus) of the same molecule?
The MIC was 10000 µg/mL (≈ 75.6 mM).

What about the MIC (Staphylococcus hominis) of the same molecule?
The MIC was 10000 µg/mL (≈ 75.6 mM).

And the “number of microorganisms after 2 days” value ([1]; 0.1% in shampoo)?
The value was 240,000.

And the “number of microorganisms after 7 days” value ([1]; 0.1% in shampoo)?
The value was 220,000.

And the “number of microorganisms after 14 days” value ([1]; 0.1% in shampoo)?
Its value is 150,000.

What about the “number of microorganisms after 28 days” value ([1]; 0.1% in shampoo) of the same molecule?
The value was 19,000.

And the “number of microorganisms after 2 days” value ([1]; 0.2% in o/w emulsion)?
Its value is 2,200,000.

What about the “number of microorganisms after 7 days” value ([1]; 0.2% in o/w emulsion) of the same molecule?
The value was 2,000,000.

What about the “number of microorganisms after 14 days” value ([1]; 0.2% in o/w emulsion) of the same molecule?
Its value is 2,500,000.

And the “number of microorganisms after 28 days” value ([1]; 0.2% in o/w emulsion)?
Its value is 2,100,000.

What about the “number of microorganisms after 2 days” value ([1]; 0.4% in o/w emulsion) of the same molecule?
Its value is 1,000,000.

And the “number of microorganisms after 7 days” value ([1]; 0.4% in o/w emulsion)?
The value was 180,000.

What about the “number of microorganisms after 14 days” value ([1]; 0.4% in o/w emulsion) of the same molecule?
The value was 150,000.

What about the “number of microorganisms after 28 days” value ([1]; 0.4% in o/w emulsion) of the same molecule?
Its value is 1.

What about the “number of microorganisms after 2 days” value (Candida albicans (CA); 0.1% in shampoo) of the same molecule?
Its value is 220,000.

And the “number of microorganisms after 7 days” value (Candida albicans (CA); 0.1% in shampoo)?
Its value is 62,000.

And the “number of microorganisms after 14 days” value (Candida albicans (CA); 0.1% in shampoo)?
Its value is 8,100.

And the “number of microorganisms after 28 days” value (Candida albicans (CA); 0.1% in shampoo)?
Its value is 1.

And the “number of microorganisms after 2 days” value (Candida albicans (CA); 0.2% in o/w emulsion)?
The value was 1,300,000.

What about the “number of microorganisms after 7 days” value (Candida albicans (CA); 0.2% in o/w emulsion) of the same molecule?
Its value is 1,600,000.

What about the “number of microorganisms after 14 days” value (Candida albicans (CA); 0.2% in o/w emulsion) of the same molecule?
Its value is 1,200,000.

What about the “number of microorganisms after 28 days” value (Candida albicans (CA); 0.2% in o/w emulsion) of the same molecule?
The value was 620,000.

What about the “number of microorganisms after 2 days” value (Candida albicans (CA); 0.4% in o/w emulsion) of the same molecule?
The value was 71,000.

And the “number of microorganisms after 7 days” value (Candida albicans (CA); 0.4% in o/w emulsion)?
Its value is 2,800.

What about the “number of microorganisms after 14 days” value (Candida albicans (CA); 0.4% in o/w emulsion) of the same molecule?
Its value is 1.

And the “number of microorganisms after 28 days” value (Candida albicans (CA); 0.4% in o/w emulsion)?
The value was 1.

What about the “number of microorganisms after 2 days” value (Escherichia coli (EC); 0.1% in shampoo) of the same molecule?
Its value is 2,100,000.

What about the “number of microorganisms after 7 days” value (Escherichia coli (EC); 0.1% in shampoo) of the same molecule?
The value was 1,400,000.

What about the “number of microorganisms after 14 days” value (Escherichia coli (EC); 0.1% in shampoo) of the same molecule?
Its value is 200,000.

What about the “number of microorganisms after 28 days” value (Escherichia coli (EC); 0.1% in shampoo) of the same molecule?
Its value is 1.

What about the “number of microorganisms after 2 days” value (Escherichia coli (EC); 0.2% in o/w emulsion) of the same molecule?
The value was 38,000.

And the “number of microorganisms after 7 days” value (Escherichia coli (EC); 0.2% in o/w emulsion)?
Its value is 73.

What about the “number of microorganisms after 14 days” value (Escherichia coli (EC); 0.2% in o/w emulsion) of the same molecule?
Its value is 1.

And the “number of microorganisms after 28 days” value (Escherichia coli (EC); 0.2% in o/w emulsion)?
Its value is 1.

What about the “number of microorganisms after 2 days” value (Escherichia coli (EC); 0.4% in o/w emulsion) of the same molecule?
The value was 23,000.

What about the “number of microorganisms after 7 days” value (Escherichia coli (EC); 0.4% in o/w emulsion) of the same molecule?
The value was 4,100.

And the “number of microorganisms after 14 days” value (Escherichia coli (EC); 0.4% in o/w emulsion)?
The value was 1.

What about the “number of microorganisms after 28 days” value (Escherichia coli (EC); 0.4% in o/w emulsion) of the same molecule?
The value was 1.

And the “number of microorganisms after 2 days” value ([2]; 0.1% in shampoo)?
The value was 2,500.

And the “number of microorganisms after 7 days” value ([2]; 0.1% in shampoo)?
Its value is 10.

What about the “number of microorganisms after 14 days” value ([2]; 0.1% in shampoo) of the same molecule?
The value was 1.

What about the “number of microorganisms after 28 days” value ([2]; 0.1% in shampoo) of the same molecule?
The value was 1.

What about the “number of microorganisms after 2 days” value ([2]; 0.2% in o/w emulsion) of the same molecule?
Its value is 1.

What about the “number of microorganisms after 7 days” value ([2]; 0.2% in o/w emulsion) of the same molecule?
The value was 1.

What about the “number of microorganisms after 14 days” value ([2]; 0.2% in o/w emulsion) of the same molecule?
Its value is 1.

And the “number of microorganisms after 28 days” value ([2]; 0.2% in o/w emulsion)?
The value was 1.

What about the “number of microorganisms after 2 days” value ([2]; 0.4% in o/w emulsion) of the same molecule?
The value was 1.

What about the “number of microorganisms after 7 days” value ([2]; 0.4% in o/w emulsion) of the same molecule?
Its value is 1.

And the “number of microorganisms after 14 days” value ([2]; 0.4% in o/w emulsion)?
The value was 1.

What about the “number of microorganisms after 28 days” value ([2]; 0.4% in o/w emulsion) of the same molecule?
The value was 1.

And the “number of microorganisms after 2 days” value ([3]; 0.1% in shampoo)?
Its value is 10.

What about the “number of microorganisms after 7 days” value ([3]; 0.1% in shampoo) of the same molecule?
Its value is 10.

And the “number of microorganisms after 14 days” value ([3]; 0.1% in shampoo)?
Its value is 1.

And the “number of microorganisms after 28 days” value ([3]; 0.1% in shampoo)?
Its value is 1.

And the “number of microorganisms after 2 days” value ([3]; 0.2% in o/w emulsion)?
Its value is 95,000.

And the “number of microorganisms after 7 days” value ([3]; 0.2% in o/w emulsion)?
The value was 1.

And the “number of microorganisms after 14 days” value ([3]; 0.2% in o/w emulsion)?
Its value is 1.

What about the “number of microorganisms after 28 days” value ([3]; 0.2% in o/w emulsion) of the same molecule?
The value was 1.

And the “number of microorganisms after 2 days” value ([3]; 0.4% in o/w emulsion)?
The value was 15,000.

What about the “number of microorganisms after 7 days” value ([3]; 0.4% in o/w emulsion) of the same molecule?
The value was 2,600.

What about the “number of microorganisms after 14 days” value ([3]; 0.4% in o/w emulsion) of the same molecule?
Its value is 1.

And the “number of microorganisms after 28 days” value ([3]; 0.4% in o/w emulsion)?
The value was 1.

Source: US20230248626A1, “Compositions Comprising (Bio)-Alkanediols” (Symrise AG, priority 0001, published 2023)
